Assay [1] deals with NAMPT (Homo sapiens (Human), UniProt P43490). As to the kind of experiment: Assay 1: Biochemical Inhibition Assay (NAMPT enzymatic reaction, NMN quantified by mass spectrometry).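 Further: recombinant His-tagged human NAMPT preincubated with compound 15 min, then reacted 30 min at rt with 1 µM NAM, 100 µM PRPP, 2.5 mM ATP, NMN product read by RapidFire MS, normalized to L-Cystathionine internal standard.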 The settings on record: read-out: Biochemical (IC50).
The subject of assay [2] is A2780 cells. As to the kind of experiment: Assay 2: In-Vitro Cell Proliferation Assay (A2780 cells, SRB readout, 72 hours).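 Further: viable cells counted via sulforhodamine B staining, absorbance at 570 nm, after 72 h exposure at 37 °C, DMSO 0.1% as control, media-only background subtracted.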 Format: cell-based. Particulars: A2780 cells, 72 hours, SRB, read-out: Cell Proliferation (IC50).

Where two headings read alike, the source gives them in different places.

Our source for the IC50 values is patent US10696692B2, “Amido-benzyl sulfone and sulfoxide derivates” (Forma TM, LLC, priority 2012, dated 2020).

NAMPT, sequence (P43490 whole entry): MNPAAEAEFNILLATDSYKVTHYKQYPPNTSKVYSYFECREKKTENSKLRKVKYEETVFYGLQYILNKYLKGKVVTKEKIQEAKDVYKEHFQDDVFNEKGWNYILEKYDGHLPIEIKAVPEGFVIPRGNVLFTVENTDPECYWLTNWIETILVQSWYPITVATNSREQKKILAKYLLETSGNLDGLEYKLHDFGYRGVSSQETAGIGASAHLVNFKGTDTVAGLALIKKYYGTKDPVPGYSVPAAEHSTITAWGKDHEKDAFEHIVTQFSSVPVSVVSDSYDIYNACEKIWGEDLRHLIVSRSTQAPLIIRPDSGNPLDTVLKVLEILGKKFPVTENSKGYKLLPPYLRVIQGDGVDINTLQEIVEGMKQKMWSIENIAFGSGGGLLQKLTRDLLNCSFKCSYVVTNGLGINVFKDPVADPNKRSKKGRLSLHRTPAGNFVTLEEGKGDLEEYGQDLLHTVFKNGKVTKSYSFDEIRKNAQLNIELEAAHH

For `CC(C)CN1CCC([S+]([O-])c2ccc(CNC(=O)N3Cc4ccncc4C3)cc2)CC1` (stereo not drawn) [Example 374, N-[(4-[(1-isobutyl-4-piperidyl)sulfinyl]phenyl]methyl]-1,3-dihydropyrrolo[3,4-c]pyridine-2-carboxamide], the IC50 in assay [1] was 15.2 nM; in assay [2] (Homo sapiens, A2780, 72 h), 2.83 nM.
In the case of `O=C(NCc1ccc(S(=O)(=O)N2CCCC3(CCCCN3)C2)cc1)c1ccc2nccn2c1` (stereo not drawn) [Example 336, N-[[4-(1,8-diazaspiro[5.5]undecan-8-ylsulfonyl)phenyl]methyl] imidazo[1,2-a]pyridine-6-carboxamide], the IC50 in assay [1] was 379 nM; in assay [2], 399 nM.
Consider “1H-Pyrazolo[3,4- b]pyridine-5-carboxylic acid 4-(4-hydroxymethyl- piperidine-1-sulfonyl)- benzylamide [Example 174]”, for which the IC50 in assay [1] is 152 nM; in assay [2], 84.4 nM.
For `O=C(NCc1ccc(S(=O)(=O)N2CC3COCC(C2)C3O)cc1)c1ccc2nccn2c1` (stereo not drawn) [Example 138, Imidazo[1,2-a]pyridine-6-carboxylic acid 4-(9-hydroxy-3-oxa-7-aza-bicyclo[3.3.1]nonane-7-sulfonyl)-benzylamide], the IC50 amounted to 28.8 nM in assay [1] and 24.9 nM in assay [2] (Homo sapiens, A2780, 72 h).
Take `CC(C)(C)OC(=O)N1CCC2(CCCN(S(=O)(=O)c3ccc(CNC(=O)c4ccc5nccn5c4)cc3)C2)CC1` [Example 131, 2-(4-{[(Imidazo[1,2-a]pyridine-6-carbonyl)-amino]-methyl}-benzenesulfonyl)-2,9-diaza-spiro[5.5]undecane-9-carboxylic acid tert-butyl ester]: the IC50 came out at 40.4 nM in assay [1] and 5.8 nM in assay [2] (Homo sapiens, A2780, 72 h).
The like results for `CN1CCOC2(C1)CN(S(=O)(=O)c1ccc(CNC(=O)c3ccc4nccn4c3)cc1)C2` [Example 272, N-[[4-[(8-methyl-5-oxa-2,8-diazaspiro[3.5]nonan-2-yl)sulfonyl]phenyl]methyl] imidazo[1,2-a]pyridine-6-carboxamide] were, in that order, 33.6 nM and 10 nM.
Consider `CCN1CCC([S+]([O-])c2ccc(CNC(=O)c3cc4ccncc4o3)cc2)CC1` (stereo not drawn) [Example 380, N-[[4-[(1-ethyl-4-piperidyl)sulfinyl]phenyl]methyl]furo[2,3-c]pyridine-2-carboxamide], for which the IC50 in assay [1] came to 68.3 nM; in assay [2] (Homo sapiens, A2780, 72 h), 499 nM.
Taken in the same sequence, the figures for `O=C(NCc1ccc(S(=O)(=O)N2CCN(C3COC3)CC2)cc1)c1cnc2[nH]ncc2c1` [Example 117, 1H-Pyrazolo[3,4-b]pyridine-5-carboxylic acid 4-(4-oxetan-3-yl-piperazine-1-sulfonyl)-benzylamide] were 229 nM and 44.5 nM.
For `C[C@@H]1CN(S(=O)(=O)c2ccc(CNC(=O)c3cc4ccncc4o3)cc2)C[C@H](C)N1` [Example 61, cis-Furo[2,3-c]pyridine-2-carboxylic acid 4-((3R,5S)-3,5-dimethyl-piperazine-1-sulfonyl)-benzylamide], the IC50 was determined as 21.5 nM in assay [1] and 23.3 nM in assay [2] (Homo sapiens, A2780, 72 h).
Take `CC(C)N1CCC([S+]([O-])c2ccc(CNC(=O)c3cc4cnccc4[nH]3)cc2)CC1` (stereo not drawn) [Example 386, N-[[4-[(1-isopropyl-4-piperidyl)sulfinyl]phenyl]methyl]-1H-pyrrolo[3,2-c]pyridine-2-carboxamide]: the IC50 was 60 nM in assay [1] and 70.6 nM in assay [2] (Homo sapiens, A2780, 72 h).
Taken in the same sequence, the figures for `CCCN1CCC(S(=O)(=O)c2ccc(CNC(=O)c3cc4ccncc4o3)cc2)CC1` [Example 342, N-[[4-[(1-propyl-4-piperidyl)sulfonyl]phenyl]methyl]furo[2,3-c]pyridine-2-carboxamide] were 20.3 nM and 23 nM.
For `O=C(NCc1ccc(S(=O)(=O)N2CCN(C3COC3)CC2)cc1)c1ccc2nccn2c1` [Example 92, Imidazo[1,2-a]pyridine-6-carboxylic acid 4-(4-oxetan-3-yl-piperazine-1-sulfonyl)-benzylamide], the IC50 worked out at 29.4 nM in assay [1] and 7.5 nM in assay [2] (Homo sapiens, A2780, 72 h).
The like results for `CC(C)(C)OC(=O)N1CCC2(CCCN2S(=O)(=O)c2ccc(CNC(=O)c3ccc4nccn4c3)cc2)C1` (stereo not drawn) [Example 237, tert-butyl 1-[4-[(imidazo[1,2-a]pyridine-6-carbonylamino)methyl]phenyl] sulfonyl-1,7-diazaspiro[4.4]nonane-7-carboxylate] were, in that order, 109 nM and 38.8 nM.
As for `CC(C)(C)OC(=O)N1C[C@@H]2OCCN(S(=O)(=O)c3ccc(CNC(=O)c4ccc5nccn5c4)cc3)[C@@H]2C1` (racemic) [Example 130, cis-4-(4-{[(Imidazo[1,2-a]pyridine-6-carbonyl)-amino]-methyl}-benzenesulfonyl)-hexahydro-pyrrolo[3,4-b][1,4]oxazine-6-carboxylic acid tert-butyl ester], the IC50 amounted to 75.8 nM in assay [1] and 11.3 nM in assay [2].
Turning to `O=C(NCc1ccc(S(=O)(=O)C2CCCOC2)cc1)c1cc2ccncc2o1` (racemic) [Example 168, Furo[2,3-c]pyridine-2-carboxylic acid 4-(tetrahydro-pyran-3-sulfonyl)-benzylamide], the IC50 amounted to 30.4 nM in assay [1] and 50.3 nM in assay [2] (Homo sapiens, A2780, 72 h).
Consider `O=C(NCc1ccc([S+]([O-])C2CCN(CC(F)(F)F)CC2)cc1)c1cc2ccncc2o1` (stereo not drawn) [Example 356, N-[[4-[[1-(2,2,2-trifluoroethyl)-4-piperidyl]sulfinyl]phenyl]methyl]furo[2,3-c]pyridine-2-carboxamide], for which the IC50 amounted to 13.5 nM in assay [1] and 3.25 nM in assay [2] (Homo sapiens, A2780, 72 h).
`O=C(NCc1ccc(S(=O)(=O)[C@@H]2CCOC2)cc1)c1cc2ccncc2o1` [Example 232, N-[[4-[(3R)-tetrahydrofuran-3-yl]sulfonylphenyl]methyl]furo [2,3-c]pyridine-2-carboxamide]: the IC50 worked out at 175 nM in assay [1] and 445 nM in assay [2] (Homo sapiens, A2780, 72 h).
Take `CCCN1CCC([S+]([O-])c2ccc(CNC(=O)c3cc4ccncc4o3)cc2)CC1` (stereo not drawn) [Example 358, N-[[4-[(1-propyl-4-piperidyl)sulfinyl]phenyl]methyl]furo[2,3-c]pyridine-2-carboxamide]: the IC50 in assay [1] is 19.3 nM; in assay [2] it was 4.58 nM.
Turning to `C[C@@H]1CN(S(=O)(=O)c2ccc(CNC(=O)c3ccc4nccn4c3)cc2)C[C@H]1O` (racemic) [Example 139, trans-Imidazo[1,2-a]pyridine-6-carboxylic acid 4-(3-hydroxy-4-methyl-pyrrolidine-1-sulfonyl)-benzylamide], the IC50 was found to be 14.5 nM in assay [1] and 10.3 nM in assay [2] (Homo sapiens, A2780, 72 h).
The like results for `CC(C)N1CCC([S+]([O-])c2ccc(CNC(=O)c3cnc4[nH]ncc4c3)cc2)CC1` (stereo not drawn) [Example 366, N-[[4-[(1-isopropyl-4-piperidyl)sulfinyl]phenyl]methyl]-1H-pyrazolo[3,4-b]pyridine-5-carboxamide] were, in that order, 29 nM and 77.6 nM.
`O=C(NCc1ccc(S(=O)(=O)C2CCN(C3COC3)CC2)cc1)c1cnc2nccn2c1` [Example 251, N-[[4-[[1-(oxetan-3-yl)-4-piperidyl]sulfonyl]phenyl]methyl]imidazo[1,2-a] pyrimidine-6-carboxamide]: the IC50 in assay [1] amounted to 4.13 nM; in assay [2], 121 nM.
